PMC5474674, “D-BMAP18 Antimicrobial Peptide Is Active In vitro, Resists to Pulmonary Proteases but Loses Its Activity in a Murine Model of Pseudomonas aeruginosa Lung Infection” (Frontiers in Chemistry, 2017)
Where a SMILES comes first, the peptide text is derived from it.

Assays:
[1] = test system: P. aeruginosa RP73; assay type: in vivo, mouse; details: 10 mg/kg intratracheal, day 1
Experimental: C57/Bl6NCrl mice (n = 8/group) were intratracheally challenged with 1 × 10^7 cells P. aeruginosa RP73 clinical strain, and 5 min later a single dose of D-BMAP18 at different concentrations (0.5, 1, and 2 mg/kg) was intratracheally administrated. Sterile distilled water alone or tobramycin [10 mg/kg] (Sigma-Aldrich S.r.l.), were used respectively as negative and positive control. […] Subsequently, lungs were homogenized (24,000 rpm) on ice in 1 ml of sterile PBS by using Ultra-Turrax T25-Basic homogenizer (IKA-Werke GmbH & Co. KG, Germany). Ten-fold serial dilutions of lung homogenates were plated on MH agar (Oxoid SpA), and the number of colony-forming units (CFU) was counted after incubation at 37°C for 24 h.

[2] = cited from earlier work
Experimental: D-BMAP18 was synthesized to provide a molecule more resistant to enzymatic cleavage. The stability of D-BMAP18 was tested in murine BAL fluid.

NC[C@H]1O[C@H](O[C@H]2[C@H](O)[C@@H](O[C@H]3O[C@H](CO)[C@@H](O)[C@H](N)[C@H]3O)[C@H](N)C[C@@H]2N)[C@H](N)C[C@@H]1O [tobramycin]
effect on bacterial load in murine lungs [1]: weak effect | mortality ([1]; 1 out of 8 mice): 12.5%

CC(C)C[C@H](NC(=O)[C@H](CCCCN)NC(=O)[C@H](CCCCN)NC(=O)[C@H](Cc1ccccc1)NC(=O)[C@H](CC(C)C)NC(=O)[C@H](CCCCN)NC(=O)[C@H](CCCCN)NC(=O)[C@H](Cc1ccccc1)NC(=O)[C@H](CCCCN)NC(=O)[C@H](CCCCN)NC(=O)[C@H](CCCNC(=N)N)NC(=O)[C@H](Cc1ccccc1)NC(=O)[C@H](CCCNC(=N)N)NC(=O)[C@H](CCCCN)NC(=O)[C@H](Cc1ccccc1)NC(=O)[C@H](CCCNC(=N)N)NC(=O)CN)C(=O)N[C@@H](CO)C(N)=O [L-BMAP18] (H-GRFKRFRKKFKKLFKKLS-NH2)
degradation in murine BAL after 10 min [2]: most of the L-BMAP-18 was digested | time within which peptide is degraded by pulmonary proteases in murine BAL [2]: ≤ 20 min
